Laboratory results as given in patent US7230011B2, “Benzenesulfonic acid indol-5-yl esters as antagonists of the 5ht6 receptor” (Eli Lilly and Company, priority 2002, dated 2007).
Structures can show the parent of a compound that is named as a salt.

**Q.** For `CN1CCC(c2cn(CCCc3ccccc3)c3ccc(OS(=O)(=O)c4ccccc4)cc23)CC1.O=C(O)C(=O)O`, which melting point is on record?
**A.** 188 to 191 °C

**Q.** With `CCCS(=O)(=O)n1cc(C2CCN(C)CC2)c2cc(OS(=O)(=O)c3ccccc3)ccc21.O=C(O)C(=O)O` as the compound, how does the melting point read?
**A.** 139 to 142 °C

**Q.** With `CC(C)S(=O)(=O)n1cc(C2CCN(C)CC2)c2cc(OS(=O)(=O)c3ccccc3)ccc21.O=C(O)C(=O)O` as the compound, how does the melting point read?
**A.** 134 to 138 °C

**Q.** With `CCS(=O)(=O)n1cc(C2CCN(C)CC2)c2cc(OS(=O)(=O)c3ccccc3)ccc21.O=C(O)C(=O)O` as the compound, how does the melting point read?
**A.** 121 to 126 °C

**Q.** Which melting point does the source give for `CN1CCC(c2cn(S(C)(=O)=O)c3ccc(OS(=O)(=O)c4ccccc4)cc23)CC1.O=C(O)C(=O)O` here?
**A.** 95 to 99 °C

**Q.** For `CN1CCC(c2cn(S(=O)(=O)Cc3ccccc3)c3ccc(OS(=O)(=O)c4ccccc4)cc23)CC1.O=C(O)C(=O)O`, which melting point is on record?
**A.** 120 to 124 °C

**Q.** For `CN1CCC(c2cn(S(=O)(=O)c3cccc4ccccc34)c3ccc(OS(=O)(=O)c4ccccc4)cc23)CC1.O=C(O)C(=O)O`, which melting point is on record?
**A.** 121 to 125 °C

**Q.** With `CCCCn1cc(C2CCN(C)CC2)c2cc(OS(=O)(=O)c3ccccc3)ccc21.O=C(O)C(=O)O` as the compound, how does the melting point read?
**A.** 193 to 198 °C

**Q.** For `CN1CCC(c2cn(Cc3ccc(F)cc3)c3ccc(OS(=O)(=O)c4ccccc4)cc23)CC1.O=C(O)C(=O)O`, which melting point is on record?
**A.** 181 to 184 °C

**Q.** For `CN1CCC(c2cn(Cc3ccc(F)cc3F)c3ccc(OS(=O)(=O)c4ccccc4)cc23)CC1.O=C(O)C(=O)O`, which melting point is on record?
**A.** 141 to 144 °C

**Q.** With `CN1CCC(c2cn(Cc3ccccc3)c3ccc(OS(=O)(=O)c4ccccc4)cc23)CC1.Cl` as the compound, how does the melting point read?
**A.** 227 to 230 °C

**Q.** Which melting point does the source give for `CN1CCC(c2cn(Cc3ccccc3F)c3ccc(OS(=O)(=O)c4ccccc4)cc23)CC1.Cl` here?
**A.** 222 to 224 °C

**Q.** With `CN1CCC(c2cn(Cc3cccc(F)c3)c3ccc(OS(=O)(=O)c4ccccc4)cc23)CC1.Cl` as the compound, how does the melting point read?
**A.** 103 to 105 °C

**Q.** For `CC(C)Cn1cc(C2CCN(C)CC2)c2cc(OS(=O)(=O)c3ccccc3)ccc21.Cl`, which melting point is on record?
**A.** 188 to 191 °C

**Q.** For `CN1CCC(c2cn(CCCCc3ccccc3)c3ccc(OS(=O)(=O)c4ccccc4)cc23)CC1.Cl`, which melting point is on record?
**A.** 158 to 161 °C

**Q.** Which melting point does the source give for `CC(C)n1cc(C2CCN(C)CC2)c2cc(OS(=O)(=O)c3ccccc3)ccc21.O=C(O)C(=O)O` here?
**A.** 103 to 107 °C

**Q.** Which melting point does the source give for `CN1CCC(c2cn(C3CCCC3)c3ccc(OS(=O)(=O)c4ccccc4)cc23)CC1.O=C(O)C(=O)O` here?
**A.** 202 to 205 °C

**Q.** With `CCCCn1cc(C2CCN(C)CC2)c2cc(OS(=O)(=O)c3ccccc3)ccc21.Cl` as the compound, how does the melting point read?
**A.** 169 to 172 °C

**Q.** Which melting point does the source give for `CCCn1cc(C2CCN(C)CC2)c2cc(OS(=O)(=O)c3c(F)cccc3F)ccc21.O=C(O)C(=O)O` here?
**A.** 185 to 189 °C

**Q.** Which melting point does the source give for `CN1CCC(c2cn(Cc3ccc(F)cc3)c3ccc(OS(=O)(=O)c4ccccc4)cc23)CC1.Cl` here?
**A.** 169 to 172 °C

**Q.** Which melting point does the source give for `CN1CCC(c2c3n(c4ccc(OS(=O)(=O)c5c(F)cccc5F)cc24)CCC3)CC1.Cl` here?
**A.** 149 °C

**Q.** Which melting point does the source give for `CCn1cc(C2CCN(C)CC2)c2cc(OS(=O)(=O)c3ccccc3)ccc21.O=C(O)C(=O)O` here?
**A.** 127 to 130 °C

**Q.** Which melting point does the source give for `CN1CC=C(c2c[nH]c3ccc(OS(=O)(=O)c4c(F)cccc4F)cc23)CC1` here?
**A.** 183 °C (dec.)

**Q.** For `CN1CC=C(c2c[nH]c3ccc(OS(=O)(=O)c4ccccc4)cc23)CC1`, which melting point is on record?
**A.** 186 to 190 °C

**Q.** Which melting point does the source give for `CN1CCC(c2cn(CCc3ccccc3)c3ccc(OS(=O)(=O)c4c(F)cccc4F)cc23)CC1.Cl` here?
**A.** 209 to 212 °C

**Q.** Which melting point does the source give for `CN1CCC(c2cn(Cc3ccc(F)cc3)c3ccc(OS(=O)(=O)c4c(F)cccc4F)cc23)CC1.Cl` here?
**A.** 114 to 118 °C

**Q.** Which melting point does the source give for `CCCn1cc(C2CCN(C)CC2)c2cc(OS(=O)(=O)c3ccccc3)ccc21.Cl` here?
**A.** 194 to 197 °C

**Q.** For `CN1CCC(c2cn(Cc3ccccc3)c3ccc(OS(=O)(=O)c4c(F)cccc4F)cc23)CC1.Cl`, which melting point is on record?
**A.** 225 to 227 °C

**Q.** With `CN1CCC(c2cn(C)c3ccc(OS(=O)(=O)c4c(F)cccc4F)cc23)CC1.O=C(O)C(=O)O` as the compound, how does the melting point read?
**A.** 195 to 198 °C (dec.)

**Q.** With `CN1CCC(c2c[nH]c3ccc(OS(=O)(=O)c4ccc(NS(C)(=O)=O)cc4)cc23)CC1.Cl` as the compound, how does the melting point read?
**A.** 238 °C (dec.)

**Q.** For `CN1CCC(c2cn(C)c3ccc(OS(=O)(=O)c4ccccc4)cc23)CC1.O=C(O)C(=O)O`, which melting point is on record?
**A.** 135 to 142 °C

**Q.** For `CN1CCC(c2c3n(c4ccc(OS(=O)(=O)c5ccccc5)cc24)CCC3)CC1.Cl`, which melting point is on record?
**A.** 202 to 204 °C

**Q.** With `CCn1cc(C2CCN(C)CC2)c2cc(OS(=O)(=O)c3c(F)cccc3F)ccc21.O=C(O)C(=O)O` as the compound, how does the melting point read?
**A.** 161 to 165 °C

**Q.** With `CN1CCC(c2cn(Cc3ccccc3)c3ccc(OS(=O)(=O)c4c(F)cccc4F)cc23)CC1.O=C(O)C(=O)O` as the compound, how does the melting point read?
**A.** 205 to 208 °C

**Q.** With `CN1CCC(c2cn(CCc3ccccc3)c3ccc(OS(=O)(=O)c4ccccc4)cc23)CC1.O=C(O)C(=O)O` as the compound, how does the melting point read?
**A.** 208 to 212 °C

**Q.** For `CCCn1cc(C2=CCN(C)CC2)c2cc(OS(=O)(=O)c3ccccc3)ccc21` (as salt: hydrochloride), which melting point is on record?
**A.** 170 to 174 °C

**Q.** For `Cc1[nH]c2ccc(OS(=O)(=O)c3c(F)cccc3F)cc2c1C1CCN(C)CC1` (as salt: hydrochloride) [Example 31, 2,6-Difluorobenzenesulfonic acid 2-methyl-3-(1-methylpiperidin-4-yl)-1H-indol-5-yl ester], which melting point is on record?
**A.** 138 °C (dec.)

**Q.** With `CN1CCC(c2c[nH]c3ccc(OS(=O)(=O)c4c(F)cccc4F)cc23)CC1` [47] as the compound, how does the melting point read?
**A.** 235 to 238 °C

**Q.** For `CN1CCC(c2c[nH]c3cc(F)c(OS(=O)(=O)c4c(F)cccc4F)cc23)CC1` [Example 32, 2,6-Difluorobenzenesulfonic acid 6-fluoro-3-(1-methylpiperidin-4-yl)-1H-indol-5-yl ester], which melting point is on record?
**A.** 202 °C

**Q.** With `CN1CCC(c2c[nH]c3ccc(OS(=O)(=O)c4ccccc4)cc23)CC1` [Example 34, Benzenesulfonic acid 3-(1-methylpiperidin-4-yl)-1H-indol-5-yl ester] as the compound, how does the melting point read?
**A.** 192 to 194 °C

**Q.** For `CN1CCC(c2c[nH]c3ccc(OS(=O)(=O)c4ccc(F)cc4F)cc23)CC1` [Example 35, 2,4-Difluorobenzenesulfonic acid 3-(1-methylpiperidin-4-yl)-1H-indol-5-yl ester], which melting point is on record?
**A.** 163 to 164 °C

**Q.** For `CN1CCC(c2c[nH]c3ccc(OS(=O)(=O)c4ccc(I)cc4)cc23)CC1` [Example 36, 4-Iodobenzenesulfonic acid 3-(1-methylpiperidin-4-yl)-1H-indol-5-yl ester], which melting point is on record?
**A.** 174 to 176 °C

**Q.** With `CN1CCC(c2c[nH]c3ccc(OS(=O)(=O)c4ccc(Cl)cc4)cc23)CC1` [Example 37, 4-Chlorobenzenesulfonic acid 3-(1-methylpiperidin-4-yl)-1H-indol-5-yl ester] as the compound, how does the melting point read?
**A.** 182 to 183.5 °C

**Q.** For `COc1ccc(S(=O)(=O)Oc2ccc3[nH]cc(C4CCN(C)CC4)c3c2)cc1` [Example 38, 4-Methoxybenzenesulfonic acid 3-(1-methylpiperidin-4-yl)-1H-indol-5-yl ester], which melting point is on record?
**A.** 186 to 187 °C

**Q.** For `Cc1ccc(S(=O)(=O)Oc2ccc3[nH]cc(C4CCN(C)CC4)c3c2)cc1` [Example 39, 4-Methylphenylsulfonic acid 3-(1-methylpiperidin-4-yl)-1H-indol-5-yl ester], which melting point is on record?
**A.** 186 to 187 °C

**Q.** For `CN1CCC(c2c[nH]c3ccc(OS(=O)(=O)c4ccccc4F)cc23)CC1` [Example 40, 2-Fluorobenzenesulfonic acid 3-(1-methylpiperidin-4-yl)-1H-indol-5-yl ester], which melting point is on record?
**A.** 180 to 182 °C
